Measured values taken from PMC10608878, “Synthesis and Antiproliferative Activity of 2,6-Disubstituted Imidazo[4,5-b]pyridines Prepared by Suzuki Cross Coupling” (Molecules, 2023).
Read-outs that look alike come from different tables or passages of the source.

Legend:
[1] = system: K-562 chronic myeloid leukemia cells; test: Antiproliferative activity, K-562 cells; type: cell-based, human; conditions: Homo sapiens, K562, 72 h, K-562, 72 h incubation
Procedure: (§1) All prepared imidazo[4,5-b]pyridines were tested for their antiproliferative activity against the following cancer cell lines: LN-229—glioblastoma, Capan-1—pancreatic adenocarcinoma, HCT-116—colorectal carcinoma, NCI-H460—lung carcinoma, DND-41—acute lymphoblastic leukemia, HL-60—acute myeloid leukemia, K-562—chronic myeloid leukemia, and Z-138—non-Hodgkin lymphoma cancer cells. An overview of the results is presented in Table 2 as IC50 values (50% inhibitory concentration). An established antitumor drug, etoposide (ETO), was included for comparison.
(§2) For proliferation assays, the human cancer cell lines used in this manuscript, namely Capan-1, HCT-116, NCI-H460, LN-229, HL-60, K-562, and Z-138, were acquired from the American Type Culture Collection (ATCC, Manassas, VA, USA), while the DND-41 cell line was purchased from the Deutsche Sammlung von Mikroorganismen und Zellkulturen (DSMZ Leibniz-Institut, Braunschweig, Germany). Culture media were purchased from Gibco (Gibco Life Technologies, Merelbeke, Belgium) and supplemented with 10% fetal bovine serum (HyClone, Cytiva, Marlborough, MA, USA). Adherent cell lines LN-229, HCT-116, NCI-H460, and Capan-1 cells were seeded in 384-well tissue culture plates (Greiner, Kremsmünster, Austria) at a density between 500 and 1500 cells per well (500 cells per well for Capan-1, 1000 cells per well for LN-229 and HCT-116, and 1500 cells per well for NCI-H460). The cells were treated with seven different concentrations of the test compounds in a 5-fold dilution series ranging from 100 to 0.006 µM after overnight incubation. Suspension cell lines HL-60, K-562, Z-138, and DND-41 were seeded at densities ranging from 2500 to 5500 cells per well (2500 cells per well for HL-60, K-562, and Z-138, and 5500 cells per well for DND-41) in 384-well culture plates containing the test compounds at the same concentration points. All conditions were incubated for 72 h before measuring the cell viability by the CellTiter 96® AQueous Non-Radioactive Cell Proliferation Assay (Promega, Madison, WA, USA) according to the manufacturer’s instructions. After 3 h, absorbance of all conditions was measured at 490 nm using a SpectraMax Plus 384 (Molecular Devices, San Jose, CA, USA), and the OD values were used to calculate the 50% inhibitory concentration (IC50). Compounds were tested in two independent experiments.

[2] = system: DND-41 acute lymphoblastic leukemia cells; test: Antiproliferative activity, DND-41 cells; type: cell-based, human; conditions: Homo sapiens, DND41, 72 h, DND-41, 72 h incubation
Procedure: as §1, §2

[3] = system: LN-229 glioblastoma cells; test: Antiproliferative activity, LN-229 cells; type: cell-based, human; conditions: Homo sapiens, LN-229, 72 h, LN-229, 72 h incubation
Procedure: as §1, §2

[4] = system: HL-60 acute myeloid leukemia cells; test: Antiproliferative activity, HL-60 cells; type: cell-based, human; conditions: Homo sapiens, HL-60, 72 h, HL-60, 72 h incubation
Procedure: as §1, §2

[5] = system: HCT-116 colorectal carcinoma cells; test: Antiproliferative activity, HCT-116 cells; type: cell-based, human; conditions: Homo sapiens, HCT-116, 72 h, HCT-116, 72 h incubation
Procedure: as §1, §2

[6] = system: NCI-H460 lung carcinoma cells; test: Antiproliferative activity, NCI-H460 cells; type: cell-based, human; conditions: Homo sapiens, NCI-H460, 72 h, NCI-H460, 72 h incubation
Procedure: as §1, §2

[7] = system: Capan-1 pancreatic adenocarcinoma cells; test: Antiproliferative activity, Capan-1 cells; type: cell-based, human; conditions: Homo sapiens, CAPAN-1, 72 h, Capan-1, 72 h incubation
Procedure: as §1, §2

[8] = system: Z-138 non-Hodgkin lymphoma cells; test: Antiproliferative activity, Z-138 cells; type: cell-based, human; conditions: Homo sapiens, Z-138, 72 h, Z-138, 72 h incubation
Procedure: as §1, §2

in vitro [9] = conditions: human
[10] = system: human coronavirus HCoV-NL63; test: Antiviral CPE assay, HCoV-NL63 in Hep3B; type: cell-based; conditions: Hep3B host cells
[11] = system: human coronavirus HCoV-229E; test: organism not typed; type: cell-based, human coronavirus 229E; conditions: HEL 299 host cells; read-out: Antiviral Activity (EC50) HCoV 229E HEL 299
[12] = system: human coronavirus HCoV-OC43; test: Antiviral CPE assay, HCoV-OC43 in HEL 299; type: cell-based; conditions: HEL 299 host cells
[13] = system: respiratory syncytial virus (RSV) A; test: Antiviral CPE assay, RSV in Hep-2; type: cell-based; conditions: human respiratory syncytial virus; Hep-2 host cells
in vitro [14] = conditions: human; remark: listed apart in the source
[15] = system: herpes simplex virus-1 (HSV-1 KOS); test: Antiviral CPE assay, HSV-1 in HEL 299; type: cell-based; conditions: HEL 299 host cells
in vitro [16] = conditions: human; remark: listed apart in the source
[17] = system: Semliki Forest virus (SFV); test: Antiviral CPE assay, SFV in VeroE6; type: cell-based; conditions: VeroE6 host cells
Sindbis virus (SINDV) = test: Antiviral CPE assay, SINDV in VeroE6; type: cell-based; conditions: VeroE6 host cells
in vitro [18] = conditions: African green monkey
[19] = system: influenza B (B/Ned/537/05); test: Antiviral CPE assay, influenza B in MDCK; type: cell-based; conditions: Influenza B virus; MDCK host cells
[20] = system: influenza A/H1N1 (A/Ned/378/05); test: Antiviral CPE assay, influenza A/H1N1 in MDCK; type: cell-based; conditions: Influenza A virus, MDCK host cells
in vitro [21] = conditions: dog
Zika virus (ZIKV) = test: Antiviral CPE assay, ZIKV in VeroE6; type: cell-based; conditions: VeroE6 host cells
yellow fever virus (YFV) = test: microbe, parasite or virus in culture; type: cell-based
[22] = system: influenza A/H3N2 (A/HK/7/87); test: Antiviral CPE assay, influenza A/H3N2 in MDCK; type: cell-based; conditions: Influenza A virus, MDCK host cells
human cancer cell lines = test: Antiproliferative activity, panel of human cancer cell lines; type: cell-based
Procedure: as §1, §2

[23] = system: normal peripheral blood mononuclear cells (PBMC); test: Toxicity in normal peripheral blood mononuclear cells; type: cell-based
Source text: Figure 6 Toxicity of compounds 13 and 19 in normal cells.

LN-229 cells = test: Cell cycle progression, LN-229 cells; type: cell-based, human
Source text: (§3) Lastly, the effects of lead compound 19 on the cell cycle progression of three cancer cell lines, namely HEp-2, NCI-H460, and LN-229, were explored.
(§4) Figure 7 The effects of lead compound 19 on cell cycle progression of NCI-H460 (left), LN-229 (middle), and Hep-2 (right) cells.

HEp-2 cells = test: Cell cycle progression, HEp-2 cells; type: cell-based, human
Source text: as §3, §4

host cell lines = host cell lines of the antiviral assays
NCI-H460 cells = test: Cell cycle progression, NCI-H460 cells; type: cell-based, human
Source text: as §3, §4

HEL 299 cells = conditions: read-out: Cytotoxicity (CC50) HEL 299; uninfected HEL 299 cells
VeroE6 cells = conditions: read-out: Cytotoxicity (CC50) Vero E6; uninfected Vero E6 cells
[24] = most/majority of the tested cancer cell lines, read-out: IC50 range against most of the tested cell lines

Row | SMILES | IC50 [1] [µM] | IC50 [2] [µM] | IC50 [3] [µM] | IC50 [4] [µM] | IC50 [5] [µM] | IC50 [6] [µM] | IC50 [7] [µM] | IC50 [8] [µM] | CC50 (in vitro [9]) [µM] | EC50 [10] [µM] | EC50 [11] [µM] | EC50 ([12]; Betacoronavirus 1, OC43) [µM] | EC50 [13] [µM] | CC50 (in vitro [14]) [µM] | EC50 ([15]; Human alphaherpesvirus 1) [µM] | CC50 (in vitro [16]) [µM] | IC50 (human cancer cell lines; [24]) [µM] | Effect on viability of PBMC ([23]; 10 µM) | Effect on viability of PBMC ([23]; 100 µM (highest dose tested)) | Cytotoxicity on host cell lines (host cell lines) | also measured
1 | Cn1c(-c2ccccc2)nc2cc(-c3ccc(C(N)=O)cc3)cnc21 [Compound 22, 4-(3-methyl-2-phenyl-3H-imidazo[4,5-b]pyridin-6-yl)benzamide] | > 100 | > 100 | > 100 | 70.9 | > 100 | > 100 | > 100 | 58.1 |  |  |  |  |  |  |  |  |  |  |  |  | melting point: > 300 °C
2 | CCC(CC)COC(=O)[C@H](C)N[P@](=O)(OC[C@H]1O[C@@](C#N)(c2ccc3c(N)ncnn23)[C@H](O)[C@@H]1O)Oc1ccccc1 [Remdesivir, remdesivir] |  |  |  |  |  |  |  |  | > 10 | 0.2 | 0.2 | 0.06 | 0.006 | > 10 | > 10 | > 10 |  |  |  |  | 
3 | N#Cc1ccc(-c2cnc3[nH]c(-c4ccccc4)nc3c2)cc1 [Compound 15, 4-(2-phenyl-3H-imidazo [4,5-b]pyridin-6-yl)benzonitrile] | > 100 | > 100 | 79.2 | 37.2 | > 100 | > 100 | 10.8 | 34.4 | > 50 | > 50 | 31.3 | > 50 | > 50 | > 50 | > 50 | > 50 |  |  |  |  | EC50 ([17]; Semliki Forest virus, Vero C1008): > 50 µM; EC50 (Sindbis virus (SINDV); Sindbis virus, Vero C1008): > 50 µM; CC50 (in vitro [18]): > 50 µM; EC50 [19]: 34.5 µM; EC50 [20]: 33.5 µM; CC50 (in vitro [21]): > 50 µM; EC50 (Zika virus (ZIKV); Zika virus, Vero C1008): > 50 µM; EC50 (yellow fever virus (YFV); Yellow fever virus, Vero C1008, read-out: Antiviral Activity (EC50) YFV VeroE6): > 50 µM; EC50 [22]: 39.5 µM
4 | Cn1c(-c2ccccc2)nc2cc(-c3ccc(O)cc3)cnc21 [Compound 19, 4-(3-methyl-2-phenyl-3H-imidazo [4,5-b]pyridin-6-yl)phenol] | 1.5 | 1.57 | 1.77 | 3.3 | 2.32 | 2.83 | 1.9 | 1.45 |  |  |  |  |  |  |  |  | 1.45 to 4.25 | little to no effect | negatively impacted the viability | cytotoxicity was observed on all host cell lines, with the exception of the non-cancerous HEL 229 cells | IC50 (human cancer cell lines; Capan-1, LN-229, DND-41, K-562 and Z-138 cell lines, read-out: IC50 range, lowest inhibitory concentrations): 1.45 to 1.9 µM; Effect on cell cycle progression (LN-229 cells): strong accumulation of cells in the G2/M phase; Effect on cell cycle progression (HEp-2 cells): strong accumulation of cells in the G2/M phase; Effect on cell cycle progression (NCI-H460 cells): strong accumulation of cells in the G2/M phase
5 | Oc1ccc(-c2cnc3[nH]c(-c4ccccc4)nc3c2)cc1 [Compound 13, 4-(2-phenyl-3H-imidazo [4,5-b]pyridin-6-yl)phenol] | 3.42 | 4.25 | 4.1 | 1.65 | 3.94 | 4.25 | 1.5 | 1.87 |  |  |  |  |  |  |  |  | 1.45 to 4.25 | little to no effect | negatively impacted the viability | cytotoxicity was observed on all host cell lines, with the exception of the non-cancerous HEL 229 cells | IC50 (human cancer cell lines; Capan-1, HL-60 and Z-138 cell lines, read-out: IC50 range, particularly strong inhibition): 1.5 to 1.87 µM
6 | CCOC(=O)[C@H]1O[C@@H]1C(=O)N[C@@H](CC(C)C)C(=O)NCCC(C)C [Compound E64d] |  |  |  |  |  |  |  |  |  |  | 2 |  |  |  |  |  |  |  |  |  | EC50 [17]: > 100 µM; EC50 [12]: 3.9 µM; EC50 (Sindbis virus (SINDV)): > 100 µM; CC50 (HEL 299 cells): > 100 µM; EC50 [15]: > 100 µM; EC50 (Zika virus (ZIKV)): 27.8 µM; EC50 (yellow fever virus (YFV); VeroE6 host cells, read-out: Antiviral Activity (EC50) YFV VeroE6): > 100 µM; CC50 (VeroE6 cells): > 100 µM
